Measured values: patent publication US20140135270A1, “MACROCYCLIC COMPOUNDS FOR INHIBITION OF INHIBITORS OF APOPTOSIS” (Ensemble Therapeutics Corp., priority 2012, published 2014)
Like-named read-outs stand apart in the source and are kept apart here.

How the values were obtained:
Type in all cases: binding
[1] = biological target: T1, N-His-Tb-BIR3(241-356, XIAP) (Homo sapiens, UniProt P98170); assay: XIAP-BIR3 SMAC Peptide Fluorescence Polarization Assay (FPA)
T1 construct: additions of N-His-Tb-BIR3(241-356, XIAP), fluoresceinated modified SMAC peptide; Tb (meaning not explained; sits between His tag and BIR3) (N)
Method: A. XIAP-BIR3 SMAC Peptide Fluorescence Polarization Assay (FPA) Assays were performed in black, flat-bottom, 384-well plates. The final assay volume was 50 μL prepared from additions of N-His-Tb-BIR3(241-356, XIAP), fluoresceinated modified SMAC peptide, and test compounds in assay buffer consisting of 20 mM Sodium Phosphate, 1 mM EDTA, 50 mM NaCl, and 0.05% Pluronic F68. The reaction was incubated at room temperature for 60 minutes and fluorescence polarization of the reaction was detected on the LJL Plate Reader. Inhibition data were calculated from mP values generated by the no protein control reactions for 100% inhibition and vehicle-only reactions for 0% inhibition. The final concentration of reagents in the assay was 130 nM N-His-Tb-BIR3(241-356, XIAP), 1.4 nM fluoresceinated modified SMAC peptide, and 1% DMSO. Dose response curves were generated to determine the concentration required for inhibiting 50% of polarization activity (IC50). Compounds were dissolved at 10 mM in dimethylsulfoxide (DMSO) and evaluated at eleven concentrations. IC50 values were derived by non-linear regression analysis.

[2] = biological target: T2, His-BIR2 (124-240/C202A/C213G) (Homo sapiens, UniProt P98170, C202A/C213G); assay: XIAP-BIR2/SMAC Peptide AlphaScreen Assay
T2 construct: additions of His-BIR2 (124-240/C202A/C213G), Biotinylated SMAC peptide
Method: C. XIAP-BIR2/SMAC Peptide AlphaScreen Assay
Assays were performed in white, flat-bottom, 384-well ProxiPlates (Perkin Elmer). […]. The reaction was incubated at room temperature for 60 minutes. After 60 minutes, 2.5 μL of Alphascreen detection reagent (Perkin Elmer) was added to the reaction mixture and incubated at room temperature in the dark for 120 minutes. The Alphascreen signal generated by the reaction was detected on the Envision Plate Reader. Inhibition data were calculated from an Alphascreen signal generated by the no protein control reactions for 100% inhibition and vehicle-only reactions for 0% inhibition. […]
Biotinylated SMAC peptide, 4 μg/mL Alphascreen detection reagents, and 0.5% DMSO. Dose response curves were generated to determine the concentration required for inhibiting 50% of the activity (IC50). Compounds were dissolved at 10 mM in dimethylsulfoxide (DMSO) and evaluated at eleven concentrations. IC50 values were derived by non-linear regression analysis.

[3] = biological target: T3, His-BIR2-3 (125-356, C202A/C213G, XIAP) (Homo sapiens, UniProt P98170, C202A/C213G); assay: XIAP-BIR2-3 Dimeric SMAC Peptide Homogeneous Time Resolved Fluorescence (HTRF) Assay; settings: fluorescein labeled dimeric SMAC peptide
T3 construct: additions of His-BIR2-3 (125-356, C202A/C213G, XIAP), fluorescein labeled dimeric SMAC peptide

[4] = biological target: T4, His-BIR3 (241-356, XIAP) (Homo sapiens, UniProt P98170); assay: XIAP-BIR3/SMAC Homogeneous Time Resolved Fluorescence (HTRF) Assay; settings: fluorescein labeled SMAC peptide
T4 construct: additions of His-BIR3 (241-356, XIAP), fluorescein labeled SMAC peptide

[5] = biotinylated SMAC peptide, read-out: BIR2 ALPHA IC50
[6] = read-out: BIR3 FPA IC50, fluorescence polarization, fluoresceinated modified SMAC peptide
[7] = fluorescence polarization, fluoresceinated modified SMAC peptide, read-out: BIR3 FPA IC50
[8] = read-out: BIR2 ALPHA IC50, biotinylated SMAC peptide

T4 sequence (P98170 241-356): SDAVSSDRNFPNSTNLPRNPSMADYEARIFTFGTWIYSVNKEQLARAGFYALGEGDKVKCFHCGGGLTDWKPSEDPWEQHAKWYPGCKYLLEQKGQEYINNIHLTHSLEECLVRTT
T1 sequence (P98170 241-356): as above
T2 sequence (P98170 124-240 C202A/C213G): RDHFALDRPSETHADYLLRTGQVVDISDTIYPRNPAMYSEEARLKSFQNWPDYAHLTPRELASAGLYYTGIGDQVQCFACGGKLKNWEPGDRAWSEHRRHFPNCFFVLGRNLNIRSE
T3 sequence (P98170 125-356 C202A/C213G): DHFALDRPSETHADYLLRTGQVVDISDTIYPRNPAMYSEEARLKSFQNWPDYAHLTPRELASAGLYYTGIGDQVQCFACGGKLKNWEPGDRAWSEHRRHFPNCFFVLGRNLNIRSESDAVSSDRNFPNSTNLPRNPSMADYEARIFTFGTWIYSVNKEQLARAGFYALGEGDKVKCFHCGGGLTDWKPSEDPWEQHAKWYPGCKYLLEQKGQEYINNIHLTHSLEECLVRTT

Row | Compound | IC50 [1] [nM] | IC50 [2, 5] [nM] | IC50 [3] [nM] | IC50 [4] [nM] | further results
1 | CN[C@@H](C)C(=O)N[C@H](C(=O)N1C[C@@H]2C[C@H]1C(=O)N[C@@H](Cc1ccc3ccccc3c1)C(=O)N[C@H](C(=O)O)COC/C=C/CO[C@H]1C[C@@H](C(=O)N[C@@H](Cc3ccc4ccccc4c3)C(=O)N[C@H](C(=O)O)CC(=O)N2)N(C(=O)[C@@H](NC(=O)[C@H](C)NC)C(C)(C)C)C1)C(C)(C)C [Example 42] | 44 | 74.6 | – | – | –
2 | CN[C@@H](C)C(=O)N[C@H](C(=O)N1C[C@@H]2C[C@H]1C(=O)N[C@@H](Cc1ccc3ccccc3c1)C(=O)N[C@H](C(=O)O)Cc1ccc(cc1)OC/C=C/CO[C@H]1C[C@@H](C(=O)N[C@@H](Cc3ccc4ccccc4c3)C(=O)N[C@H](C(=O)O)CC(=O)N2)N(C(=O)[C@@H](NC(=O)[C@H](C)NC)C(C)(C)C)C1)C(C)(C)C [Example 41] | 46.7 | 45.7 | – | – | –
3 | CNC(C)C(=O)NC(C(=O)N1CC2CC1C(=O)NC(Cc1ccc3ccccc3c1)C(=O)NC(C(=O)O)Cc1ccc(cc1)OCC=CCOC1CC(C(=O)NC(Cc3ccc4ccccc4c3)C(=O)NC(C(=O)O)CCCC(=O)N2)N(C(=O)C(NC(=O)C(C)NC)C(C)(C)C)C1)C(C)(C)C (stereo not drawn) [Example 36] | – | 38.8 | – | – | IC50 [1, 6]: 49 nM
4 | CN[C@@H](C)C(=O)N[C@H](C(=O)N1C[C@@H]2C[C@H]1C(=O)N[C@@H](Cc1ccc3ccccc3c1)C(=O)N[C@H](C(=O)O)C/C=C/CO[C@H]1C[C@@H](C(=O)N[C@@H](Cc3ccc4ccccc4c3)C(=O)N[C@H](C(=O)O)CCC(=O)N2)N(C(=O)[C@@H](NC(=O)[C@H](C)NC)C(C)(C)C)C1)C(C)(C)C [Example 35] | 47.6 | 49.1 | – | – | –
5 | CNC(C)C(=O)NC(C(=O)N1CC2CC1C(=O)NC(Cc1ccc3ccccc3c1)C(=O)NC(C(=O)O)Cc1ccc(cc1)OCC=CCOC1CC(C(=O)NC(Cc3ccc4ccccc4c3)C(=O)NC(C(=O)NS(C)(=O)=O)Cc3ccc(cc3)OCc3cn2nn3)N(C(=O)C(NC(=O)C(C)NC)C(C)(C)C)C1)C(C)(C)C (stereo not drawn) [Example 5] | – | – | – | – | IC50 [1, 7]: 50 nM; IC50 [2, 8]: 71.5 nM
6 | CN[C@@H](C)C(=O)N[C@H](C(=O)N1C[C@@H]2C[C@H]1C(=O)N[C@@H](Cc1ccc3ccccc3c1)C(=O)N[C@H](C(=O)O)COC/C=C/CO[C@H]1C[C@@H](C(=O)N[C@@H](Cc3ccc4ccccc4c3)C(=O)N[C@H](C(=O)O)Cc3ccc(cc3)C(=O)N2)N(C(=O)[C@@H](NC(=O)[C@H](C)NC)C(C)(C)C)C1)C(C)(C)C [Example 39] | 31.3 | 41.1 | – | – | –
7 | CNC(C)C(=O)NC(C(=O)N1CC2CC1C(=O)NC(Cc1ccc3ccccc3c1)C(=O)NC(C(=O)O)Cc1ccc(cc1)OCCCCOC1CC(C(=O)NC(Cc3ccc4ccccc4c3)C(=O)NC(C(=O)NS(C)(=O)=O)Cc3ccc(cc3)OCc3cn2nn3)N(C(=O)C(NC(=O)C(C)NC)C(C)(C)C)C1)C(C)(C)C (stereo not drawn) [Example 8] | – | – | – | – | IC50 [1, 7]: 49.6 nM; IC50 [2, 8]: 190 nM
8 | CN[C@@H](C)C(=O)N[C@H](C(=O)N1C[C@@H]2C[C@H]1C(=O)N[C@@H](Cc1ccc3ccccc3c1)C(=O)N[C@H](C(=O)O)COC/C=C/CO[C@H]1C[C@@H](C(=O)N[C@@H](Cc3ccc4ccccc4c3)C(=O)N[C@H](C(=O)O)CCC(=O)N2)N(C(=O)[C@@H](NC(=O)[C@H](C)NC)C(C)(C)C)C1)C(C)(C)C [Example 34] | 40.1 | 33.6 | – | – | –
9 | CNC(C)C(=O)NC(C(=O)N1CC2CC1C(=O)NC(Cc1ccc3ccccc3c1)C(=O)NC(C(=O)O)Cc1ccc(cc1)OCC=CCOC1CC(C(=O)NC(Cc3ccc4ccccc4c3)C(=O)NC(C(=O)O)Cc3ccc(cc3)C(=O)N2)N(C(=O)C(NC(=O)C(C)NC)C(C)(C)C)C1)C(C)(C)C (stereo not drawn) [Example 32] | – | 16.2 | – | – | IC50 [1, 6]: 36.1 nM
10 | CN[C@@H](C)C(=O)N[C@H](C(=O)N1C[C@@H]2C[C@H]1C(=O)N[C@@H](Cc1ccc3ccccc3c1)C(=O)N[C@H](C(=O)O)COC/C=C/CO[C@H]1C[C@@H](C(=O)N[C@@H](Cc3ccc4ccccc4c3)C(=O)N[C@H](C(=O)O)CCCC(=O)N2)N(C(=O)[C@@H](NC(=O)[C@H](C)NC)C(C)(C)C)C1)C(C)(C)C [Example 37] | 33 | 58.2 | – | – | –
11 | CN[C@@H](C)C(=O)N[C@H](C(=O)N1C[C@@H]2C[C@H]1C(=O)N[C@@H](Cc1ccc3ccccc3c1)C(=O)N[C@H](C(=O)O)C/C=C/CO[C@H]1C[C@@H](C(=O)N[C@@H](Cc3ccc4ccccc4c3)C(=O)N[C@H](C(=O)O)Cc3ccc(cc3)C(=O)N2)N(C(=O)[C@@H](NC(=O)[C@H](C)NC)C(C)(C)C)C1)C(C)(C)C [Example 40] | 26.3 | 44.2 | – | – | –
12 | CN[C@@H](C)C(=O)N[C@H](C(=O)N1C[C@@H]2C[C@H]1C(=O)N[C@@H](Cc1ccc3ccccc3c1)C(=O)N[C@H](C(=O)O)C/C=C/CO[C@H]1C[C@@H](C(=O)N[C@@H](Cc3ccc4ccccc4c3)C(=O)N[C@H](C(=O)O)CCCC(=O)N2)N(C(=O)[C@@H](NC(=O)[C@H](C)NC)C(C)(C)C)C1)C(C)(C)C [Example 38] | 42.1 | 116 | – | – | –
13 | CN[C@@H](C)C(=O)N[C@H](C(=O)N1C[C@@H]2C[C@H]1C(=O)N[C@@H](Cc1ccc3ccccc3c1)C(=O)N[C@H](C(=O)O)Cc1ccc(cc1)C(=O)N[C@H]1C[C@@H](C(=O)N[C@@H](Cc3ccc4ccccc4c3)C(=O)N[C@H](C(=O)O)Cc3ccc(cc3)OC/C=C/CO2)N(C(=O)[C@@H](NC(=O)[C@H](C)NC)C(C)(C)C)C1)C(C)C [Example 68] | – | – | 2.7 | 15.5 | –
14 | CN[C@@H](C)C(=O)N[C@H](C(=O)N1C[C@@H]2C[C@H]1C(=O)N[C@@H](Cc1ccc3ccccc3c1)C(=O)N[C@H](C(=O)O)Cc1ccc(cc1)OC/C=C/CO[C@H]1C[C@@H](C(=O)N[C@@H](Cc3ccc(-c4cccc(F)c4)cc3)C(=O)N[C@H](C(=O)NS(=O)(=O)C3CC3)Cc3ccc(cc3)OCc3cn2nn3)N(C(=O)[C@@H](NC(=O)[C@H](C)NC)C(C)(C)C)C1)C(C)(C)C [Example 115] | – | – | 11.1 | 18.1 | –
15 | CN[C@@H](C)C(=O)N[C@H](C(=O)N1C[C@@H]2C[C@H]1C(=O)N[C@@H](Cc1ccc3ccccc3c1)C(=O)N[C@H](C(=O)O)Cc1ccc(cc1)OC/C=C/CO[C@H]1C[C@@H](C(=O)N[C@@H](Cc3cccc(-c4cccnc4)c3)C(=O)N[C@H](C(=O)NS(=O)(=O)C3CC3)Cc3ccc(cc3)OCc3cn2nn3)N(C(=O)[C@@H](NC(=O)[C@H](C)NC)C(C)(C)C)C1)C(C)(C)C [Example 116] | – | – | 20.1 | 30.8 | –
16 | CN[C@@H](C)C(=O)N[C@H](C(=O)N1C[C@@H]2C[C@H]1C(=O)N[C@@H](Cc1ccc3ccccc3c1)C(=O)N[C@H](C(=O)NS(=O)(=O)C1CC1)Cc1ccc(cc1)OCc1cn(nn1)[C@H]1C[C@@H](C(=O)N[C@@H](Cc3ccc4ccccc4c3)C(=O)N[C@H](C(=O)O)Cc3ccc(cc3)OC/C=C/CO2)N(C(=O)[C@@H](NC(=O)[C@H](C)NC)C(C)(C)C)C1)C1CCNCC1 [Example 110] | – | – | 1.5 | 10 | –
17 | CN[C@@H](C)C(=O)N[C@H](C(=O)N1C[C@@H]2C[C@H]1C(=O)N[C@@H](Cc1ccc3ccccc3c1)C(=O)N[C@H](C(=O)O)Cc1ccc(cc1)C(=O)N[C@H]1C[C@@H](C(=O)N[C@@H](Cc3ccc4ccccc4c3)C(=O)N[C@H](C(=O)O)Cc3ccc(cc3)OC/C=C/CO2)N(C(=O)[C@@H](NC(=O)[C@H](C)NC)C(C)(C)C)C1)C1CCCCC1 [Example 71] | – | – | 3.7 | 27.9 | –
18 | CN[C@@H](C)C(=O)N[C@H](C(=O)N1C[C@@H]2C[C@H]1C(=O)N[C@@H](Cc1ccc3ccccc3c1)C(=O)N[C@H](C(=O)O)Cc1ccc(cc1)OCc1cn(nn1)[C@H]1C[C@@H](C(=O)N[C@@H](Cc3ccc4ccccc4c3)C(=O)N[C@H](C(=O)NS(=O)(=O)C3CC3)Cc3ccc(cc3)OCCCCO2)N(C(=O)[C@@H](NC(=O)[C@H](C)NC)C(C)(C)C)C1)C(C)(C)C [Example 122] | – | – | 11.3 | 12.9 | –
